Laboratory results from BigSolDB 2.1.

CO[C@H]1C[C@@H]2CC[C@@H](C)[C@@](O)(O2)C(=O)C(=O)N2CCCC[C@H]2C(=O)O[C@H]([C@H](C)C[C@@H]2CC[C@@H](O)[C@H](OC)C2)CC(=O)[C@H](C)/C=C(\C)[C@@H](O)[C@@H](OC)C(=O)[C@H](C)C[C@H](C)/C=C/C=C/C=C/1C
solubility (mole fraction)
Conditions | in acetone | in chloroform | in dichloromethane | in ethanol | in methanol
295 K | 0.00316 | 0.00272 | 0.0019 | 0.00137 | 0.00072
300 K | 0.00321 | 0.00289 | 0.00201 | 0.00143 | 0.00088
305 K | 0.00343 | 0.00311 | 0.0022 | 0.00163 | 0.00107
310 K | 0.00388 | 0.00325 | 0.00246 | 0.00184 | 0.00123
315 K | 0.00433 | 0.00346 | 0.00271 | 0.00197 | 0.00143
320 K | 0.0047 | 0.00369 | 0.00279 | 0.0021 | 0.00146
325 K | 0.00487 | 0.00386 | 0.00306 | 0.00237 | 0.00163
330 K | 0.00511 | 0.00413 | 0.00333 | 0.00259 | 0.00171
335 K | 0.00545 | 0.00437 | 0.00351 | 0.00275 | 0.00183
340 K | 0.00627 | 0.00458 | 0.00397 | 0.00291 | 0.00188
345 K | 0.00721 | 0.00495 | 0.00433 | 0.00317 | 0.00205
